Assay results from PMC7076388 (Pharmaceutics, 2020).

Tests used:
[1] = biological target: T1, LOX from glycine max (soybean) (Glycine max, UniProt P08170); experiment: Lipoxygenase glycine max (soybean) assay; type: biochemical; conditions: dose-response assay; read-out: IC50 for LOX inhibition
T1 construct: purchased Sigma-Aldrich
T1 sequence (P08170 1-839): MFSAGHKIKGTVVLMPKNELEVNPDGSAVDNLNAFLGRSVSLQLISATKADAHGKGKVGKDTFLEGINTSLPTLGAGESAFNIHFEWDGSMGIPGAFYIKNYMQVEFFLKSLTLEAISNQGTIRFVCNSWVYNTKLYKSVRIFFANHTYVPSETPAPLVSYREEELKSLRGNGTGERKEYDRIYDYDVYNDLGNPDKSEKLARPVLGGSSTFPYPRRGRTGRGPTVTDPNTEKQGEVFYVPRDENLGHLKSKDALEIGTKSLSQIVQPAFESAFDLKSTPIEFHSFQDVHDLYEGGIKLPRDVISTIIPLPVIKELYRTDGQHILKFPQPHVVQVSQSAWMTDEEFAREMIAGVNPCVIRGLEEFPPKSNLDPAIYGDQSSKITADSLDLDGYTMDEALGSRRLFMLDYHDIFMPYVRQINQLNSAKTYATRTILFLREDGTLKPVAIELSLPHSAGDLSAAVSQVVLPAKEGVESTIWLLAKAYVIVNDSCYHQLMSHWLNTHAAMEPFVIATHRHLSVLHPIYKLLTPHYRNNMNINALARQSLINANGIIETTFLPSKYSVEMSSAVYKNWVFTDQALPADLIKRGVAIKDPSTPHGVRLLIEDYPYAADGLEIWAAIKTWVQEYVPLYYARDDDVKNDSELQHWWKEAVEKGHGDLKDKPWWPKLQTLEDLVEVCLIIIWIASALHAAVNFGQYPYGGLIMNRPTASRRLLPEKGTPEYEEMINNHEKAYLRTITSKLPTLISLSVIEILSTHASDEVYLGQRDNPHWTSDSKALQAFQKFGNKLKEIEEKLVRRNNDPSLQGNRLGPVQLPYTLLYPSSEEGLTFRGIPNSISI
Method: The inhibitory effect on LOX was assessed in 96-well plates, using a modified version of a previously reported procedure from Pereira et al.. […] After 5 min pre-incubation at room temperature, the reaction was started by addition of linoleic acid substrate (20 µL of a 4.18 mM solution in ethanol). The reaction was monitored at 234 nm using a multiplate reader (Multiskan Thermo Fisher Scientific Oy, Vantaa, Finland), for 3 min.

[2] = biological target: T2, 26S proteasome isolated from AGS cells (Homo sapiens, UniProt P28074); experiment: 26S proteasome inhibition; type: biochemical
T2 construct: purified 26S proteasome isolated from AGS cells; endogenous in cells; host or cells: AGS cells
T2 sequence (P28074 60-263): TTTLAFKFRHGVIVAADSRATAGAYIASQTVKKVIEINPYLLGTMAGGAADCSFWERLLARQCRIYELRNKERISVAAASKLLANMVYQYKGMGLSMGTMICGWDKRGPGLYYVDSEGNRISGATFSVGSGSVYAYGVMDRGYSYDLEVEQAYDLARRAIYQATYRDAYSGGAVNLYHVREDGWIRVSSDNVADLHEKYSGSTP
Method: This assay was carried out in the same way as described for 20S proteasome (vide supra), except using purified 26S proteasome isolated from AGS cells. To extract 26S proteasome from cells, they were centrifuged at 1300 rpm for 3 min at 37 °C and the supernatant was rejected. The pellet was then resuspended in 5 mL of HBSS. After this step, the cells were centrifuged again under the conditions referred to above and the supernatant was rejected. Then, 1 mL of cell lysis buffer was added, before being placed in ice (4 °C) for 30 min. Subsequently, the mixture was centrifuged at 14,000 g during 30 min at 4 °C. The pellet was rejected, and the supernatant was kept in an Eppendorf tube. The quantity of protein isolated was determined by Bradford Assay.
A stock solution of bovine serum albumin (BSA) (1.0 mg/mL) was prepared in H2O. From the stock solution, six concentrations were prepared: 5%, 4%, 3%, 2%, 1% and 0% stock solution in H2O. An aliquot of each sample (40 µL) was added to a solution of the Bradford reagent (200 µL). After 5 min, the absorbance was measured at 595 nm and the calibration curve was plotted (correlation > 0.99). […] After 5 min, the absorbance was measured at 595 nm and the result was compared with the correlation curve in order to calculate the concentration of protein.

AGS cells = experiment: MTT cell viability, AGS cells; type: cell-based; conditions: 100 µM, 24 h
Method: Adenocarcinoma gastric cells (AGS; Sigma-Aldrich, St. Louis, MO, USA), murine-macrophage cell line (RAW 264.7; American Type Culture Collection, LGC Standards S.L.U., Barcelona, Spain), and human foetal lung fibroblasts (MRC-5; ECACC, Porton Down Salisbury, UK) were cultured as a monolayer at 37 °C in a humidified incubator with 5% carbon dioxide. AGS and RAW 264.7 cells were grown in DMEM, supplemented with 1% streptomycin/penicillin and 10% FBS (Gibco®). MRC-5 cells were grown in MEM, supplemented with 1% streptomycin/penicillin and 10% FBS.
Cell viability was evaluated by the MTT reduction assay. Cells were cultured in 96-well plates (15,000 cells/well for AGS, 25,000 cells/well for RAW and 20,000 cells/well for MRC-5) and allowed to attach for 24 h. After incubation with compounds for 24 h, MTT (0.5 mg/mL final concentration) was added to each well and the plate was incubated for 75 min at 37 °C. Formazan crystals were dissolved by the addition of a DMSO: isopropanol mixture (3:1) and then quantified spectrophotometrically at 570 nm using a microplate reader (Multiskan Thermo Fisher Scientific Oy, Vantaa, Finland).

[3] = tested on: LPS-induced •NO production in RAW 264.7 cells; conditions: cited from earlier work

- IC50 [1]: 54.1 µM
- 26S proteasome activity versus control ([2]; 100 µM): 8.1%
- IC50 ([2]; dose-response assay): 18.6 µM
Compound: COc1ccc2cc(C(C)C(=O)NC(Cc3ccc(O)cc3)C(=O)NC(=Cc3ccccc3)C(=O)O)ccc2c1 [Compound 1, Npx-L-Tyr-Z-ΔPhe-OH]
- toxicity towards AGS cells (AGS cells): not toxic
- inhibition of LPS-induced production of •NO ([3]; preliminary study): modest ability to inhibit
- IC50 ([3]; previously reported, read-out: IC50 (LPS-dependent •NO production)): 79.3 µM
